Here are results for one molecule from US4525358A, “2-[4-(Diphenylmethyl)-1-piperazinyl]-acetic acids and their amides” (UCB Pharmaceuticals, Inc., priority 1981, dated 1985).

Test [1] relates to passive cutaneous anaphylaxis. Briefly: passive cutaneous anaphylaxis test (PCA), antiallergic activity. Type of test: in vivo. Particulars: rats. How it is done:
This activity is determined in rats by means of the passive cutaneous anaphylaxis test (PCA) (see J. GOOSE and A. M. J. N. BlAIR, Immunology, 16, (1969), 749-760; and […] and D. ROEMER, Arzneimittel-Forschung, 28, (5), (1978), 770-782). Female rats are used, the sides of which have been partly shaved. Into the zone thus shaved there is injected intradermally, for passive sensitization of the animals, 0.05 ml of IGE antiovalbumin serum at a dilution such that, at the time of the PCA test, a distinct spot with a surface area of about 100 mm^2 appears at the point of injection. […] At the point of intradermal injection, there appears a distinct blue spot, the surface of which is measured. In order to test the activity of the compounds according to the present invention, the procedure is carried out in the same manner; however, the test compound is administered orally 72 hours after injection of the serum; 15 minutes after this administration, 0.25 ml of the solution of the allergen is injected intravenously; 30 minutes after the administration of the allergen, the surface of the blue spot is measured.

For test [2] the following is noted: intravenous; cited from earlier work.

In the case of `O=C(O)c1cc(=O)c2c(OCC(O)COc3cccc4oc(C(=O)O)cc(=O)c34)cccc2o1` [sodium cromoglycate], the “ID 50 per os (reduction of 50% of the surface area of the colored spot)” value in test [1] (15 minutes before allergen) is “inactive”. For the same molecule, the “antiallergic activity (PCA), in words” value in test [1] (per os) was “inactive”. For the same molecule, the antiasthmatic activity result in test [2] is given as “well known for its antiasthmatic activity”.
